{"source": "patent US11667632B2", "about": "“2-(1H-indazol-3-yl)-3H-imidazo[4,5-C]pyridines and their anti-inflammatory uses thereof” (BioSplice Therapeutics, Inc., priority 2015, dated 2023)", "key": {"[1]": {"assay": "Stability and radiochemical purity of the [3H]-Compound 10 formulation incubated at 37° C.", "format": "physicochemical", "protocol": "The stability and radiochemical purity (RCP) of the radiolabeled [^3H]-Compound 10 was established in a concurrent experiment where a formulation of radiolabeled [3^H]-Compound 10 was incubated at 37° C. and radiochemical purity (RCP) of aliquots were analyzed over time and determined to be ˜ 95.5% (Days 0, 7, 14 and 30), 94.5% (Day 60), 93% (Day 90), and 83% (Day 180)."}, "TNF-α": {"tested_on": "TNF-α", "assay": "Inhibition of TNF-α in LPS-stimulated primary PBMCs (ELISA, MSD U-plex)", "format": "cell-based", "details": "human PBMCs, LPS (500 ng/mL), Compound 10 (150 nM), 24 hrs; MSD platform; FIG. 15", "protocol": "Primary peripheral blood mononuclear cells (PBMCs) freshly isolated from healthy human donors were obtained from AllCells Inc. and utilized for assays immediately. Compound 10 was dissolved in DMSO as a 10 mM stock and used to prepare compound source plates. A serial dilution (8-point dose-response) and compound transfer was performed using the ECHO 550 (Labcyte, Sunnyvale, Calif.) into 96-well clear bottom assay plates (Greiner Bio-One) with appropriate DMSO backfill for a final DMSO concentration of 0.05%. PBMCs were plated at 2×10e^5 cells/well in Roswell Park Memorial Institute (RPMI) 1640 Medium (Catalog #21870-100, Buffalo, N.Y.) with 1% L-glutamine, 1% HEPES, 1% Sodium Pyruvate, 2% Sodium Bicarbonate supplemented with 100 units/mL penicillin, 50 μg/mL streptomycin and 1% fetal bovine serum (Catalog #16140089, Life Technologies, Carlsbad, Calif.). […]\nSupernatants were diluted appropriately for ELISA. […] Following several washes to remove unbound avidin-HRP, the TMB substrate was added and the plates were read on the Cytation 3 plate reader (Biotek Inc., Winooski, Vt.) at an absorbance of 450 nm with correction at 570 nm. […] Inhibition profile and EC50 was calculated using Prism 5 (GraphPad Software Inc, La Jolla, Calif., USA). […] Levels of cytokines were calculated using software form Meso Scale Discovery."}, "[2]": {"assay": "Quantitative whole body autoradiography and excretion of radiolabeled Compound 10 in rats", "format": "in vivo", "details": "SD rats, two IA injections at 1 μg/knee", "description": "In terms of excretion, 95% of the excreted radioactivity was recovered in the feces and only 5% in the urine. QWBA radiographic images and quantitation of radioactivity in the feces with much less recovery in the urine, support the hypothesis that [^3H]-Compound 10 is being eliminated by drainage in the lumbar and inguinal lymph ducts and lymph nodes, and through the small and large intestines and cecum in a mechanism consistent with slow passive fecal excretion, a major route of elimination of slowly metabolized xenobiotics. During this process, the radiolabeled [3H]-Compound 10 was degraded with only ˜1.5% of parent detected in the fecal matter."}, "[3]": {"assay": "Persistence and half-life of radiolabeled Compound 10 in rat knee joints", "format": "in vivo", "details": "SD rats", "description": "[…] These same animals were used for the QWBA experiments (above).\nOn Day 180, only about ˜6.6% of administered dose was detected."}, "IL-6": {"tested_on": "IL-6", "assay": "Inhibition of IL-6 in LPS-stimulated human monocyte cells (THP-1), HTRF", "format": "cell-based", "details": "Homo sapiens; THP-1 cells, LPS 500 ng/mL, IL-6 by HTRF", "protocol": "Human Monocyte Cell Culture: A human monocyte cell line (THP-1 cells; Catalog #TIB-202, ATCC, Manassas, Va.) was cultured in Roswell Park Memorial Institute (RPMI) 1640 Medium (Catalog #21870-100, Buffalo, N.Y.) with 1% L-glutamine, 1% HEPES, 1% sodium pyruvate, 2% sodium bicarbonate supplemented with 100 units/mL penicillin, 50 μg/mL streptomycin, 2-mercaptoethanol (0.05 mM) [basal medium] and 10% fetal bovine serum (Catalog #16140089, Life Technologies, Carlsbad, Calif.) at 37° C. and 5% CO2.\nCompound Screening: THP-1 cells were cultured in basal media with 1% FBS for 24 hours before the start of the assay. Each compound of Formula (I) was dissolved in DMSO as a 10 mM stock and used to prepare compound source plates. Serial dilution (1:3, 10-point dose-response curves starting from 10 μM) and compound transfer was performed using the ECHO 550 (Labcyte, Sunnyvale, Calif.) into 384-well white low volume assay plates (Greiner Bio-One) with appropriate DMSO backfill for a final DMSO concentration of 0.1%. THP-1 cells were plated at 5000 cells/well in the 384-well plates and incubated at 37° C. for 2 h. 500 ng/mL of LPS was added after 2 hours and cells were incubated for another 22 hours at 37° C. Plates were spun in a centrifuge for 1 minute at 10,000 rpm and a mixture of anti-IL-6 XL665, and anti-IL-6 Cryptate diluted in reconstitution buffer (Cisbio Inc.) was added to each well. Following incubation for 3 hrs at room temperature, homogeneous time-resolved fluorescence (HTRF) was measured using the Envision (Perkin Elmer) at 665 nm and […]. The ratio of fluorescence at 665 nm to 620 nm was used as a readout for IL-6 quantification. All samples were processed in duplicate. Readings were normalized to DMSO treated cells and normalized activities were utilized for EC50 calculations using the dose-response log (inhibitor) vs. response -variable slope (four parameters) nonlinear regression feature available in GraphPad Prism 5.0 (or Dotmatics). For EC50 of >10 μM, the percent inhibition at 10 μM is provided."}, "[4]": {"details": "time points Days 14-90 only, excluding Day 180"}}, "data": [{"smiles": "CC(C)CC(=O)Nc1cncc(-c2ccc3[nH]nc(-c4nc5c(-c6cccc(F)c6)cncc5[nH]4)c3c2)c1", "note": "[Compound 10]", "values": [{"measurement": "radiochemical purity (RCP) of formulation over time", "setting": "[1]; Day 60", "value": 94.5, "unit": "%"}, {"measurement": "radiochemical purity (RCP) of formulation over time", "setting": "[1]; Day 90", "value": 93, "unit": "%"}, {"measurement": "radiochemical purity (RCP) of formulation over time", "setting": "[1]; Day 180", "value": 83, "unit": "%"}, {"measurement": "radiochemical purity (RCP) of formulation over time", "setting": "[1]; Days 0, 7, 14 and 30", "value": "~95.5", "unit": "%"}, {"measurement": "Inhibition of TNF-α", "setting": "TNF-α", "value": "Inhibition"}, {"measurement": "excreted radioactivity recovered in the feces", "setting": "[2]", "value": 95, "unit": "%"}, {"measurement": "excreted radioactivity recovered in the urine", "setting": "[2]", "value": 5, "unit": "%"}, {"measurement": "parent detected in the fecal matter", "setting": "[2]", "value": "~1.5", "unit": "%"}, {"measurement": "total radioactivity recovered from the whole carcass, feces, urine and cage wash", "setting": "[2]; QWBA", "value": "~75", "unit": "%"}, {"measurement": "radioactivity in major organs", "setting": "[2]; at 1 hour and up to 168 hours post-IA injection", "value": "negligible/undetectable"}, {"measurement": "mean % of administered dose per knee", "setting": "[3]; 1 μg/knee IA, Day 14", "value": 64, "unit": "%"}, {"measurement": "mean % of administered dose per knee", "setting": "[3]; 1 μg/knee IA, Day 30", "value": 54, "unit": "%"}, {"measurement": "mean % of administered dose per knee", "setting": "[3]; 1 μg/knee IA, Day 60", "value": 42, "unit": "%"}, {"measurement": "mean % of administered dose per knee", "setting": "[3]; 1 μg/knee IA, Day 90", "value": 38, "unit": "%"}, {"measurement": "% of administered dose detected in knee joint", "setting": "[3]; 1 μg/knee IA, Day 180", "value": "~6.6", "unit": "%"}, {"measurement": "detection in the knee joint space (radiographic images)", "setting": "[3]; Day 180", "value": "still detectable"}, {"measurement": "elimination rate constant, Ke", "setting": "[3]; all time points, Days 14-180", "value": 0.01342}, {"measurement": "half-life (T1/2) in the knee joint", "setting": "[3]; all time points, Days 14-180", "value": 51.64, "unit": "days"}, {"measurement": "elimination rate constant, Ke", "setting": "[3]; [4]", "value": 0.00687}, {"measurement": "half-life (T1/2) in the knee joint", "setting": "[3]; [4]", "value": 100.9, "unit": "days"}, {"measurement": "administered radioactivity recovered in each knee joint", "setting": "[3]; two IA injections at 1 μg/knee, 1 h post-IA injection up to 168 h", "value": "60-85%"}, {"measurement": "EC50", "setting": "IL-6", "value": 13, "unit": "nM"}]}]}
